Assay results taken from patent publication US20220236254A1, “BITTER TASTE RECEPTOR BLOCKERS AND METHODS OF THEIR IDENTIFICATION” (Firmenich Incorporated, priority 2019, published 2022).
Blank lines part the entries; values can stand above or below the molecule they belong to.

Columns and labels:
Format in all cases: cell-based
[1] = target: T1, polypeptide identified herein as SEQ ID NO: 2 (hT2R44) (Homo sapiens, UniProt P59541, F252L); test: Bitterness antagonism: PMFs antagonizing limonin on cells expressing the receptor; conditions: limonin 25 μM
T1 construct: expressed in transfected cells; host or cells: cells expressing a promiscuous G protein (G16g44)
T1 sequence (P59541 1-319 F252L): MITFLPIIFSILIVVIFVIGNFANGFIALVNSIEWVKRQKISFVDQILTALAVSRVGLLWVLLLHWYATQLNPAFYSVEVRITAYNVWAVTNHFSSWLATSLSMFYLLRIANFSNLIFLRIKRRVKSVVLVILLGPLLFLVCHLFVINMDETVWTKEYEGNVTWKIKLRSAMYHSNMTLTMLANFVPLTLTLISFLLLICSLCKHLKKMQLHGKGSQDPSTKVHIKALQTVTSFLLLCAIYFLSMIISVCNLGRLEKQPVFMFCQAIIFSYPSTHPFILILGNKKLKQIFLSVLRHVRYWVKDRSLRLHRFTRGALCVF
Procedure: (§1) Cells expressing a promiscuous G protein (G16g44) were transfected using TransIT-293 (Mirus) with expression vectors encoding 22 functional biter receptor cDNAs, with one receptor per transfection. The cells were transfected directly in 384-well format high-density plates and incubated for 28 hours. Later, cells were loaded with the Ca-specific dye Fluo4-AM. After an incubation of 60 minutes, excess dye is washed off, and cells are stimulated with respective bitter agonists while simultaneously recording changes in intracellular fluorescence using a FLIPR instrument. Bitter agonist and responding receptors were identified and respective stable bitter receptor cell lines were then used in the same assay to perform full dose-response analysis with the respective bitter agonists.
Certain PMFs were tested for their ability to antagonize binding of limonin to cells expressing the polypeptide identified herein as SEQ ID NO: 2.

SEQ ID NO: 2 (hT2R44) = target: T2, SEQ ID NO: 2 (hT2R44) (Homo sapiens, UniProt P59541, F252L); test: Bitter receptor identification, FLIPR calcium assay with bitter agonist; conditions: concentration range of 12.5 μM to 50 μM; cells expressing SEQ ID NO: 2
T2 construct: expressed in transfected cells; host or cells: cells expressing a promiscuous G protein (G16g44)
T2 sequence (P59541 1-319 F252L): T1 sequence (P59541 1-319 F252L)
Procedure: as §1, with “([…])” for “(G16g44)”, “agonists. The above protocol was carried out using limonin as a non-limiting example of a bitter agonist. […] The five expressed receptor proteins correspond to the amino acid sequences identified herein as SEQ ID NO: 1, 2, 3, 4, and 5.” for “agonists.”

SEQ ID NO: 5 (hT2R75) = target: T3, SEQ ID NO: 5 (hT2R75) (Homo sapiens, UniProt P59540); test: as above; conditions: concentration range of 12.5 μM to 50 μM; cells expressing SEQ ID NO: 5
T3 construct: expressed in transfected cells; host or cells: cells expressing a promiscuous G protein (G16g44)
T3 sequence (P59540 1-309): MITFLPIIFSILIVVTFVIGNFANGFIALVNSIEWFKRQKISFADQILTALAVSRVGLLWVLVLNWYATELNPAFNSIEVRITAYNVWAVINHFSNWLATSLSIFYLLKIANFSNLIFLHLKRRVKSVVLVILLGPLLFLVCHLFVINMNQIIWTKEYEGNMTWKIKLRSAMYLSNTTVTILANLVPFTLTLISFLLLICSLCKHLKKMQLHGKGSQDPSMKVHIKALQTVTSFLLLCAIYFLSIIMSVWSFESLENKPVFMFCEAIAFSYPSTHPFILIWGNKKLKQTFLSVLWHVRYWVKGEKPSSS
Procedure: as §1, with “([…])” for “(G16g44)”, “agonists. The above protocol was carried out using limonin as a non-limiting example of a bitter agonist. […] The five expressed receptor proteins correspond to the amino acid sequences identified herein as SEQ ID NO: 1, 2, 3, 4, and 5.” for “agonists.”

SEQ ID NO: 4 (hT2R65) = target: T4, SEQ ID NO: 4 (hT2R65) (Homo sapiens, UniProt P59542, V32I); test: as above; conditions: concentration range of 12.5 μM to 50 μM; cells expressing SEQ ID NO: 4
T4 construct: expressed in transfected cells; host or cells: cells expressing a promiscuous G protein (G16g44)
T4 sequence (P59542 1-299 V32I): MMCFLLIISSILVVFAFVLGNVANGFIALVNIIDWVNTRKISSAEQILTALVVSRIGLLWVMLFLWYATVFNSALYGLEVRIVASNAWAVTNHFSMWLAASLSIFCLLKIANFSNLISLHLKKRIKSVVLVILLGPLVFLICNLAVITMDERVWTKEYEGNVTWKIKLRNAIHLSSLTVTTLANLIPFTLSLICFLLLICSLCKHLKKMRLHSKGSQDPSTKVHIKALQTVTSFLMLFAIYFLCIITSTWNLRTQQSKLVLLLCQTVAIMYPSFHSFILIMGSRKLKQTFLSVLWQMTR
Procedure: as §1, with “([…])” for “(G16g44)”, “agonists. The above protocol was carried out using limonin as a non-limiting example of a bitter agonist. […] The five expressed receptor proteins correspond to the amino acid sequences identified herein as SEQ ID NO: 1, 2, 3, 4, and 5.” for “agonists.”

SEQ ID NO: 3 (hT2R51) = target: T5, SEQ ID NO: 3 (hT2R51) (Homo sapiens, UniProt P59533, A49P/I296V); test: as above; conditions: concentration range of 12.5 μM to 50 μM; cells expressing SEQ ID NO: 3
T5 construct: expressed in transfected cells; host or cells: cells expressing a promiscuous G protein (G16g44)
T5 sequence (P59533 1-333 A49P/I296V): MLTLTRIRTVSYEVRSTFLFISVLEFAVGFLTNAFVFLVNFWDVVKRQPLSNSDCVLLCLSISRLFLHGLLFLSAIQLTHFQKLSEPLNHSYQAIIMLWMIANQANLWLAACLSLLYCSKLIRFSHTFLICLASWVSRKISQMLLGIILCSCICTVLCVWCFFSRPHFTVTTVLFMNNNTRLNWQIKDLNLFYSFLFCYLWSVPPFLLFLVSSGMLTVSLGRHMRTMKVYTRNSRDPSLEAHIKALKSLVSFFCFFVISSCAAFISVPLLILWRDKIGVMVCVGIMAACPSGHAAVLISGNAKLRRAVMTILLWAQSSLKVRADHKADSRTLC
Procedure: as §1, with “([…])” for “(G16g44)”, “agonists. The above protocol was carried out using limonin as a non-limiting example of a bitter agonist. […] The five expressed receptor proteins correspond to the amino acid sequences identified herein as SEQ ID NO: 1, 2, 3, 4, and 5.” for “agonists.”

SEQ ID NO: 1 (hT2R80) = target: T6, SEQ ID NO: 1 (hT2R80) (Homo sapiens, UniProt Q9NYW2); test: as above; conditions: concentration range of 12.5 μM to 50 μM; cells expressing SEQ ID NO: 1
T6 construct: expressed in transfected cells; host or cells: cells expressing a promiscuous G protein (G16g44)
T6 sequence (Q9NYW2 1-309): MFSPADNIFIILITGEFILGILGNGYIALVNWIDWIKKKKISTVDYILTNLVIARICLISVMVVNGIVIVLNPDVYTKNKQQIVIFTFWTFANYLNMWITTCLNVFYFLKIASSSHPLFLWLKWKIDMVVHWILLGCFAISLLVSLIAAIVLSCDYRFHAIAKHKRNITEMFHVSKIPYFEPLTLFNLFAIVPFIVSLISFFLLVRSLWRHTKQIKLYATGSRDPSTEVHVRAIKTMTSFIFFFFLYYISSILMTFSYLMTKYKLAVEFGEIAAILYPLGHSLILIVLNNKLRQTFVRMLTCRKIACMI
Procedure: as §1, with “([…])” for “(G16g44)”, “agonists. The above protocol was carried out using limonin as a non-limiting example of a bitter agonist. […] The five expressed receptor proteins correspond to the amino acid sequences identified herein as SEQ ID NO: 1, 2, 3, 4, and 5.” for “agonists.”

[2] = antagonist 200 μM (no antagonist: 98)

- % Limonin Activation [1, 2]: 70%
Compound: COc1ccc(-c2cc(=O)c3c(OC)c(OC)c(OC)cc3o2)cc1OC

- % Limonin Activation [1, 2]: 74%
Compound: COc1ccc(-c2cc(=O)c3c(OC)c(OC)c(OC)c(OC)c3o2)cc1OC

- % Limonin Activation ([1]; antagonist 50 μM (no antagonist: 98)): 76%
Compound: COc1ccc(-c2cc(=O)c3c(OC)c(OC)c(OC)c(OC)c3o2)cc1

- % Limonin Activation [1, 2]: 79%
Compound: COc1ccc(-c2oc3c(OC)c(OC)c(OC)c(OC)c3c(=O)c2OC)cc1OC

- dose response of receptor to bitter agonist (SEQ ID NO: 2 (hT2R44)): positive dose response
- dose response of receptor to bitter agonist (SEQ ID NO: 5 (hT2R75)): positive dose response
- dose response of receptor to bitter agonist (SEQ ID NO: 4 (hT2R65)): positive dose response
- dose response of receptor to bitter agonist (SEQ ID NO: 3 (hT2R51)): positive dose response
- dose response of receptor to bitter agonist (SEQ ID NO: 1 (hT2R80)): positive dose response
Compound: CC1(C)O[C@H]2CC(=O)OC[C@]23[C@H]2CC[C@@]4(C)[C@H](c5ccoc5)OC(=O)[C@H]5O[C@]54[C@]2(C)C(=O)C[C@@H]13 [limonin]

- % Limonin Activation ([1]; antagonist 100 μM (no antagonist: 98)): 77%
Compound: COc1ccc(-c2oc3cc(OC)c(OC)c(OC)c3c(=O)c2OC)cc1OC

- % Limonin Activation [1, 2]: 64%
Compound: COc1cc(-c2cc(=O)c3c(OC)c(OC)c(OC)cc3o2)ccc1O
